# Data published in ChEMBL document CHEMBL1139048, “Synthesis and in vitro antitumoral activity of new 3,5-dicyanopyridine derivatives” (2007).
# Experiments:
# Format in all cases: functional
# A498 = experiment: Antiproliferative activity against human A498 cells after 48 hrs by SRB protein assay; conditions: A498, 48 h
# NCI-H522 = experiment: Antiproliferative activity against human NCI-H522 cells after 48 hrs by SRB protein assay; conditions: NCI-H522, 48 h
# SNB-75 = experiment: Antiproliferative activity against human SNB75 cells after 48 hrs by SRB protein assay; conditions: SNB-75, 48 h
# OVCAR-3 = experiment: Antiproliferative activity against human OVCAR-3 cells after 48 hrs by SRB protein assay; conditions: OVCAR-3, 48 h
# CAKI-1 = experiment: Antiproliferative activity against human CAKI1 cells after 48 hrs by SRB protein assay; conditions: CAKI-1, 48 h
# MDA-MB-231 = experiment: Antiproliferative activity against human MDA-MB-231 cells after 48 hrs by SRB protein assay; conditions: MDA-MB-231, 48 h
# MDA-MB-435 = experiment: Antiproliferative activity against human MDA-MB-435 cells after 48 hrs by SRB protein assay; conditions: MDA-MB-435, 48 h
# IGROV-1 = experiment: Antiproliferative activity against human IGROV1 cells after 48 hrs by SRB protein assay; conditions: IGROV-1, 48 h
# SK-OV-3 = experiment: Antiproliferative activity against human SKOV3 cells after 48 hrs by SRB protein assay; conditions: SK-OV-3, 48 h
# T47D = experiment: Antiproliferative activity against human T47D cells after 48 hrs by SRB protein assay
# HCC 2998 = experiment: Antiproliferative activity against human HCC2998 cells after 48 hrs by SRB protein assay; conditions: HCC 2998, 48 h
# MCF7 = experiment: Antiproliferative activity against human MCF7 cells after 48 hrs by SRB protein assay; conditions: MCF7, 48 h
# K562 = experiment: Antiproliferative activity against human K562 cells after 48 hrs by SRB protein assay; conditions: K562, 48 h
# HOP-62 = experiment: Antiproliferative activity against human HOP62 cells after 48 hrs by SRB protein assay; conditions: HOP-62, 48 h
# HCT-116 = experiment: Antiproliferative activity against human HCT116 cells after 48 hrs by SRB protein assay; conditions: HCT-116, 48 h
# HT-29 = experiment: Antiproliferative activity against human HT29 cells after 48 hrs by SRB protein assay; conditions: HT-29, 48 h
# U-251 = experiment: Antiproliferative activity against human U251 cells after 48 hrs by SRB protein assay; conditions: U-251, 48 h
# Malme-3M = experiment: Antiproliferative activity against human MALME3M cells after 48 hrs by SRB protein assay
# M14 = experiment: Antiproliferative activity against human M14 cells after 48 hrs by SRB protein assay; conditions: M14, 48 h
# NCI/ADR-RES = experiment: Antiproliferative activity against human NCI/ADR-RES cells after 48 hrs by SRB protein assay
# COLO 205 = experiment: Antiproliferative activity against human COLO205 cells after 48 hrs by SRB protein assay; conditions: COLO 205, 48 h
# SR = experiment: Antiproliferative activity against human SR cells after 48 hrs by SRB protein assay
# HOP-92 = experiment: Antiproliferative activity against human HOP92 cells after 48 hrs by SRB protein assay; conditions: HOP-92, 48 h
# RXF 393 = experiment: Antiproliferative activity against human RXF393 cells after 48 hrs by SRB protein assay; conditions: RXF 393, 48 h
# UO-31 = experiment: Antiproliferative activity against human UO31 cells after 48 hrs by SRB protein assay; conditions: UO-31, 48 h
# NCI-H460 = experiment: Antiproliferative activity against human NCI-H460 cells after 48 hrs by SRB protein assay; conditions: NCI-H460, 48 h
# CCRF-CEM = experiment: Antiproliferative activity against human CCRF-CEM cells after 48 hrs by SRB protein assay
# MOLT-4 = experiment: Antiproliferative activity against human MOLT4 cells after 48 hrs by SRB protein assay; conditions: MOLT-4, 48 h
# RPMI-8226 = experiment: Antiproliferative activity against human RPMI8226 cells after 48 hrs by SRB protein assay; conditions: RPMI-8226, 48 h
# NCI-H226 = experiment: Antiproliferative activity against human NCI-H226 cells after 48 hrs by SRB protein assay; conditions: NCI-H226, 48 h
# SF-295 = experiment: Antiproliferative activity against human SF295 cells after 48 hrs by SRB protein assay; conditions: SF-295, 48 h
# LOX IMVI = experiment: Antiproliferative activity against human LOXIMVI cells after 48 hrs by SRB protein assay
# SK-MEL-5 = experiment: Antiproliferative activity against human SK-MEL-5 cells after 48 hrs by SRB protein assay; conditions: SK-MEL-5, 48 h
# UACC-62 = experiment: Antiproliferative activity against human UACC62 cells after 48 hrs by SRB protein assay; conditions: UACC-62, 48 h
# ACHN = experiment: Antiproliferative activity against human ACHN cells after 48 hrs by SRB protein assay
# SN12C = experiment: Antiproliferative activity against human SN12C cells after 48 hrs by SRB protein assay
compound,measurement,setting,value
N#Cc1c(N)nc(N2CCOCC2)c(C#N)c1-c1ccccc1Cl,GI50,A498,2.29 µM
same,GI50,NCI-H522,0.0234 µM
same,TGI,NCI-H522; read-out: Log TGI (converted),2.82 µM
same,GI50,SNB-75,0.417 µM
N#Cc1c(N)nc(N2CCOCC2)c(C#N)c1-c1c(Cl)cccc1Cl,GI50,OVCAR-3,2.4 µM
same,GI50,A498,3.72 µM
same,GI50,CAKI-1,2.24 µM
same,GI50,MDA-MB-231,3.55 µM
same,GI50,MDA-MB-435,1.55 µM
same,GI50,NCI-H522,2.34 µM
same,GI50,IGROV-1,2 µM
same,GI50,SK-OV-3,4.07 µM
same,GI50,T47D,3.39 µM
same,GI50,SNB-75,1.74 µM
same,GI50,HCC 2998,0.0182 µM
same,LC50,HCC 2998,20 µM
same,TGI,HCC 2998; read-out: Log TGI (converted),2.45 µM
same,GI50,MCF7,2.95 µM
same,GI50,K562,3.31 µM
same,GI50,HOP-62,3.55 µM
same,GI50,HCT-116,3.09 µM
same,GI50,HT-29,3.31 µM
same,GI50,U-251,3.89 µM
same,GI50,Malme-3M,3.72 µM
same,GI50,M14,2.45 µM
same,GI50,NCI/ADR-RES,2.34 µM
COc1ccc(-c2c(C#N)c(N)nc(N3CCOCC3)c2C#N)cc1,GI50,A498,7.41 µM
same,GI50,NCI-H522,8.71 µM
same,GI50,COLO 205,2.14 µM
same,GI50,IGROV-1,3.09 µM
same,GI50,SK-OV-3,5.01 µM
same,GI50,T47D,0.832 µM
COc1cc(-c2c(C#N)c(N)nc(N3CCOCC3)c2C#N)cc(OC)c1OC,GI50,SR,13.5 µM
same,GI50,COLO 205,5.62 µM
same,GI50,T47D,15.1 µM
same,GI50,SNB-75,1.62 µM
same,GI50,HCC 2998,5.89 µM
N#Cc1c(N)nc(N2CCOCC2)c(C#N)c1-c1cccnc1,GI50,HCC 2998,8.71 µM
N#Cc1c(N)nc(N2CCOCC2)c(C#N)c1-c1ccc(Cl)cc1,GI50,HOP-92,8.91 µM
same,GI50,A498,8.13 µM
same,GI50,IGROV-1,14.1 µM
same,GI50,SNB-75,14.5 µM
same,GI50,RXF 393,0.479 µM
N#Cc1c(N)nc(N2CCSCC2)c(C#N)c1-c1ccc(O)cc1,GI50,SR,11.2 µM
same,GI50,HOP-92,10 µM
same,GI50,SNB-75,11 µM
same,GI50,HOP-62,12.6 µM
COc1ccc(OC)c(-c2c(C#N)c(N)nc(N3CCOCC3)c2C#N)c1,GI50,SK-OV-3,12 µM
same,GI50,SNB-75,12.9 µM
N#Cc1c(N)nc(N2CCOCC2)c(C#N)c1-c1ccncc1,GI50,A498,18.6 µM
same,GI50,IGROV-1,12.3 µM
same,GI50,T47D,12.6 µM
same,GI50,HCC 2998,13.5 µM
same,GI50,Malme-3M,9.12 µM
N#Cc1c(N)nc(N2CCOCC2)c(C#N)c1-c1cccc(O)c1,GI50,A498,14.8 µM
same,GI50,IGROV-1,18.6 µM
same,GI50,SNB-75,17.4 µM
Cc1ccc(-c2c(C#N)c(N)nc(N3CCOCC3)c2C#N)o1,GI50,SNB-75,2.75 µM
N#Cc1c(N)nc(N2CCOCC2)c(C#N)c1-c1ccc(Cl)cc1Cl,GI50,HOP-92,3.31 µM
same,GI50,A498,2.69 µM
same,GI50,MDA-MB-435,5.75 µM
same,GI50,NCI-H522,4.79 µM
same,GI50,IGROV-1,6.61 µM
same,GI50,SNB-75,6.31 µM
same,GI50,RXF 393,5.62 µM
same,GI50,UO-31,3.24 µM
same,GI50,NCI-H460,9.33 µM
same,GI50,MCF7,8.71 µM
N#Cc1c(NCc2ccccc2)nc(NCc2ccccc2)c(C#N)c1-c1cccc(O)c1,GI50,CCRF-CEM,3.39 µM
same,GI50,MOLT-4,3.31 µM
same,GI50,RPMI-8226,3.09 µM
same,GI50,SR,2.09 µM
same,GI50,HOP-92,2.51 µM
same,GI50,NCI-H226,2.88 µM
same,GI50,SF-295,2.95 µM
same,GI50,LOX IMVI,2.95 µM
same,GI50,SK-MEL-5,1.7 µM
same,GI50,UACC-62,2.09 µM
same,GI50,OVCAR-3,3.31 µM
same,GI50,A498,2 µM
same,GI50,ACHN,2.63 µM
same,GI50,CAKI-1,2.75 µM
same,GI50,SN12C,2.29 µM
same,GI50,MDA-MB-231,2.24 µM
same,GI50,MDA-MB-435,2.88 µM
N#Cc1c(N)nc(N2CCOCC2)c(C#N)c1-c1ccccn1,GI50,NCI-H226,0.513 µM
same,GI50,UACC-62,0.0339 µM
same,GI50,SN12C,0.038 µM
